pIC50: −log10 of the molar value. A value given as a limit tells only on which side of the number the result lay.

Series [1] has as its system bicistronic HCV replicon (replicon RNA, GenBank Accession No. AJ242654). Kind of series: HCV Replicon Assay. Format: cell-based. The conditions noted are these: Hepatitis C virus, 72 h, read-out: Replicon IC50.

For `C[C@H](NS(=O)(=O)c1ccc(-c2c(C#N)c3ccc(C4CCC4)cc3n2C2CCC2)nc1)C1CC1` [compound 263, 6-(3-cyano-1,6-dicyclobutyl-1H-indol-2-yl)-N-[(1S)-1-cyclopropylethyl]pyridine-3-sulfonamide], the melting point is 124 to 126 °C. Further, in series [1], the pIC50 was greater than 6.30.

In the case of `COc1ccc2c(C#N)c(-c3ncc(S(=O)(=O)NC(CF)CF)cn3)n(C3CCCC3)c2c1` [compound 231, 2-(3-cyano-1-cyclopentyl-6-methoxy-1H-indol-2-yl)-N-(1,3-difluoropropan-2-yl)pyrimidine-5-sulfonamide], the melting point lay within 232 to 234 °C. For the same compound, the pIC50 in series [1] was greater than 6.30.

In the case of `CC(C)Oc1ccc2c(C#N)c(-c3ccc(NS(=O)(=O)C4CC4)nn3)n(C3CCC3)c2c1` [compound 274, N-{6-[3-cyano-1-cyclobutyl-6-(propan-2-yloxy)-1H-indol-2-yl]pyridazin-3-yl}cyclopropanesulfonamide], the melting point fell in the range of 175 to 177 °C. Moreover, the pIC50 in series [1] is 5.30 to 5.70.

`Cc1cc(-c2c(C#N)c3cc(F)ccc3n2-c2ccccn2)ncc1S(=O)(=O)N[C@@H](C)C(F)(F)F` [compound 847, 6-[3-cyano-5-fluoro-1-(pyridin-2-yl)-1H-indol-2-yl]-4-methyl-N-[(2S)-1,1,1-trifluoropropan-2-yl]pyridine-3-sulfonamide] showed a melting point of 180 to 186 °C. Also, the pIC50 in series [1] was greater than 6.30.

As to `Cc1cc2c(cc1Cl)c(C#N)c(-c1ccc(S(=O)(=O)N[C@H](C)C(F)(F)F)cn1)n2C1CCC1` [compound 445, 6-(5-chloro-3-cyano-1-cyclobutyl-6-methyl-1H-indol-2-yl)-N-[(2R)-1,1,1-trifluoropropan-2-yl]pyridine-3-sulfonamide], the melting point was 213 to 215 °C. In series [1], the pIC50 was greater than 6.30.

In turn, `CCCn1c(-c2ncc(S(=O)(=O)N[C@@H](C)C(F)(F)F)cn2)c(C#N)c2ccc(OC(F)F)cc21` [compound 400, 2-[3-cyano-6-(difluoromethoxy)-1-propyl-1H-indol-2-yl]-N-[(2S)-1,1,1-trifluoropropan-2-yl]pyrimidine-5-sulfonamide] returned a melting point of 207 to 208 °C. Besides, the pIC50 in series [1] is greater than 6.30.

Compound `C[C@H](NS(=O)(=O)c1ccc(-c2c(C#N)c3ccc(C#N)cc3n2CC2CC2)nc1)C1CC1` [compound 350, N-[(1S)-1-cyclopropylethyl]-6-[3,6-dicyano-1-(cyclopropylmethyl)-1H-indol-2-yl]pyridine-3-sulfonamide] displayed a melting point of 203 to 208 °C. For the same compound, the pIC50 in series [1] was 5.70 to 6.30.

`C[C@H](NS(=O)(=O)c1ccc(-c2c(C#N)c3cc(Cl)ccc3n2-c2ccccn2)nc1)C(F)(F)F` [compound 442, 6-[5-chloro-3-cyano-1-(pyridin-2-yl)-1H-indol-2-yl]-N-[(2S)-1,1,1-trifluoropropan-2-yl]pyridine-3-sulfonamide] registered a melting point of 186 to 188 °C. The pIC50 in series [1] was greater than 6.30.

Take `COc1ccc(-n2c(-c3ccc(S(=O)(=O)NC(CF)CF)cn3)c(C#N)c3cc(F)ccc32)cc1` [compound 336, 6-[3-cyano-5-fluoro-1-(4-methoxyphenyl)-1H-indol-2-yl]-N-(1,3-difluoropropan-2-yl)pyridine-3-sulfonamide]: the melting point was in the range of 198 to 200 °C. For the same compound, the negative-log IC50 (pIC50) in series [1] is greater than 6.30.

The compound `N#Cc1c(-c2ccc(S(=O)(=O)NC(CF)CF)cn2)n(-c2ccccc2)c2cc(OC(F)F)ccc12` [compound 226, 6-[3-cyano-6-(difluoromethoxy)-1-phenyl-1H-indol-2-yl]-N-(1,3-difluoropropan-2-yl)pyridine-3-sulfonamide] registered a melting point of 200 to 202 °C. Also, the pIC50 in series [1] is greater than 6.30.

Consider `N#Cc1c(-c2ncc(S(=O)(=O)NC(CF)CF)cn2)n(C2CCC2)c2cc(N3CCOCC3)ccc12` [compound 321, 2-[3-cyano-1-cyclobutyl-6-(morpholin-4-yl)-1H-indol-2-yl]-N-(1,3-difluoropropan-2-yl)pyrimidine-5-sulfonamide], for which the melting point was 223 to 225 °C. Besides, the pIC50 in series [1] was 5.70 to 6.30.

In turn, `Cc1cc2c(cc1F)c(C#N)c(-c1ccc(S(=O)(=O)N[C@@H](C)C(F)(F)F)cn1)n2-c1ccncc1` [compound 933, 6-[3-cyano-5-fluoro-6-methyl-1-(pyridin-4-yl)-1H-indol-2-yl]-N-[(2S)-1,1,1-trifluoropropan-2-yl]pyridine-3-sulfonamide] yielded a melting point of 250 to 255 °C. In addition, the pIC50 in series [1] is greater than 6.30.

The compound `CCc1cc2c(cc1F)c(C#N)c(-c1ccc(S(=O)(=O)N[C@@H](C)C(F)(F)F)cn1)n2-c1cccc(OC)c1` [compound 1010, 6-[3-cyano-6-ethyl-5-fluoro-1-(3-methoxyphenyl)-1H-indol-2-yl]-N-[(2S)-1,1,1-trifluoropropan-2-yl]pyridine-3-sulfonamide] returned a melting point of 229 to 233 °C. For the same compound, in series [1], the pIC50 was greater than 6.30.

`C[C@H](NS(=O)(=O)c1ccc(-c2c(C#N)c3ccc(OC(F)(F)F)cc3n2CC2CC2)nc1)C1CC1` [compound 309, 6-[3-cyano-1-(cyclopropylmethyl)-6-(trifluoromethoxy)-1H-indol-2-yl]-N-[(1S)-1-cyclopropylethyl]pyridine-3-sulfonamide]: the melting point fell in the range of 115 to 117 °C. In addition, the pIC50 in series [1] is greater than 6.30.

In turn, `Cc1cc2c(cc1F)c(C(N)=O)c(-c1ccc(S(=O)(=O)NC(C)(C)C(F)(F)F)cn1)n2C1CCCCC1` [compound 714, 1-cyclohexyl-5-fluoro-6-methyl-2-{5-[(1,1,1-trifluoro-2-methylpropan-2-yl)sulfamoyl]pyridin-2-yl}-1H-indole-3-carboxamide] came in with a melting point of 245 to 250 °C. For the same compound, the pIC50 in series [1] was greater than 6.30.

In the case of `CCc1cc2c(cc1F)c(C(=O)O)c(-c1ccc(NS(=O)(=O)C(C)(C)C)nc1)n2[C@H](C)C1CC1` [compound 1103, 2-{6-[(tert-butylsulfonyl)amino]pyridin-3-yl}-1-[(1R)-1-cyclopropylethyl]-6-ethyl-5-fluoro-1H-indole-3-carboxylic acid], the melting point is 165 °C (dec.). Moreover, in series [1], the pIC50 is 5.70 to 6.30.

On to `C[C@@H](NS(=O)(=O)c1ccc(-c2c(C#N)c3ccc(OC(F)F)cc3n2C2CCCCC2)nc1)C(F)(F)F` [compound 195, 6-[3-cyano-1-cyclohexyl-6-(difluoromethoxy)-1H-indol-2-yl]-N-[(2R)-1,1,1-trifluoropropan-2-yl]pyridine-3-sulfonamide], for which the melting point was in the range of 170 to 172 °C. Moreover, the pIC50 in series [1] was greater than 6.30.

As for `C[C@H](NS(=O)(=O)c1ccc(-c2c(C#N)c3cc(F)c(O)cc3n2C2CCCC2)nc1)C(F)(F)F` [compound 576, 6-(3-cyano-1-cyclopentyl-5-fluoro-6-hydroxy-1H-indol-2-yl)-N-[(2S)-1,1,1-trifluoropropan-2-yl]pyridine-3-sulfonamide], the melting point fell in the range of 214 to 216 °C. Besides, the pIC50 in series [1] is greater than 6.30.

Compound `Cc1cc2c(cc1F)c(C(N)=O)c(-c1ccc(S(=O)(=O)N[C@@H](C)C(F)(F)F)cn1)n2-c1cccnc1` [compound 913, 5-fluoro-6-methyl-1-(pyridin-3-yl)-2-(5-{[(2S)-1,1,1-trifluoropropan-2-yl]sulfamoyl}pyridin-2-yl)-1H-indole-3-carboxamide] gave a melting point of 223 to 227 °C. In addition, in series [1], the pIC50 was greater than 6.30.

A word on the melting point: it is the temperature of the solid-liquid transition. A word on the pIC50: it is the negative decadic logarithm of the IC50, by convention in mol/L.

Source of the values: patent publication US8735414B2 (priority 2009, dated 2014).
